Reference: paper PMC7998250, “Temperate Zone Plant Natural Products—A Novel Resource for Activity against Tropical Parasitic Diseases” (Pharmaceuticals, 2021)
Like-named read-outs stand apart in the source and are kept apart here.

Legend:
[1] = test system: T. evansi bloodstream form; experiment: Initial screen, T. evansi bloodstream form, Alamar Blue; format: cell-based, Trypanosoma evansi; conditions: Trypanosoma evansi; for activity at 1 µM: initial screen; for inhibition of growth at 1 µM: x = initial hit, read-out: initial hit T.e
Method: (§1) 634 compounds from the PhytoQuest Phytopure temperate plant natural product library were screened for growth inhibitory activity against L. mexicana axenic amastigotes, T. brucei bloodstream form, intraerythrocytic asexual P. falciparum (at 2 μM) and T. evansi bloodstream form parasites (at 1 μM). […] Our initial hits were defined as reducing growth of the parasite by ≥50%.
(§2) L. mexicana strain MNYC/BZ/62/M379 and L. donovani strain LdBOB (a clonal line from strain MHOM/SD/62/1S-CL2) were maintained in vitro in the procyclic promastigote stage. Parasites were cultivated at 26 °C in Schneider’s medium (Gibco) pH 7.0 containing 10% FBS, 100 U/mL penicillin (Lonza) and 100 μg/mL streptomycin (Lonza) as previously described. Differentiation into axenic amastigotes was performed as described previously. Briefly, axenic amastigotes were cultivated at 32 °C in Schneider’s medium pH 5.5 containing 10% FBS, 100 U/mL penicillin (Lonza) and 100 μg/mL streptomycin (Lonza). Bloodstream form T. brucei brucei strain Lister 427 and T. evansi strain Antat 3/3 [59] were maintained in vitro at 37 °C with 5% (v/v) CO2 in HMI-11 medium supplemented with 10% FBS, as described elsewhere. Intraerythrocytic cultures of P. falciparum Dd2^Luc strain [62] were maintained at 37 °C in a 1% O2:3% CO2:96% N2 atmosphere in RPMI-1640 containing 37.5 mM HEPES, 5 mM NaOH, 10 mM D-glucose, 2 mM L-glutamine, 100 μM hypoxanthine, […] gentamicin sulfate, 5% human serum and 5% albumax-II and 2% haematocrit erythrocytes. When required, cultures were synchronised to ring stages using the sorbitol lysis method. Preliminary cytotoxicity screening was assessed using HepG2 cells. These cells were maintained in vitro at 37 °C with 5% (v/v) CO2 in DMEM (Sigma) pH 7 supplemented with 10% FBS, 100 U/mL penicillin (Lonza) and 100 μg/mL streptomycin (Lonza), as previously described. The human monocyte cell line THP-1 [68] was maintained in vitro by culturing at 37 °C with 5% (v/v) CO2 in complete RPMI medium (Dutch modified RPMI-1640 (Gibco) containing 10% FBS and 2 mM L-glutamine (Gibco)). Differentiation of THP-1 cells into macrophages was performed by seeding 2.5 × 10^5 cells/mL in complete RPMI media, supplemented with 20 ng/mL phorbol 12-myristate 13-acetate (PMA), followed by incubation at 37 °C with 5% (v/v) CO2 for 24 h.
(§3) The library was provided as 634 non-polar compounds (1 mg/mL in DMSO). Initial screening was performed in a 96-well plate with 200 μL of parasite culture. The initial screen used each compound at a final concentration of 2 μM for L. mexicana axenic amastigotes, T. brucei and P. falciparum, and at 1 μM for T. evansi. L. mexicana axenic amastigotes were plated at 1 × 10^6 cells/mL, incubated for 72 h, and the Alamar Blue assay was used to assess parasite growth. Each compound was tested in triplicate, with two biological replicates (n = 6). T. brucei and T. evansi were plated at 1×10^5 cells/mL for 48 h, and the Alamar Blue assay was used to assess parasite growth. Each compound was tested in triplicate with two biological replicates (n = 6). Intraerythrocytic P. falciparum in the trophozoite stage were seeded at 0.5% parasitaemia and 2% haematocrit for 48 h, and the Malaria SYBR-Green I fluorescence assay was used to assess parasite growth. Each compound was tested in duplicate with two biological replicates (n = 4). Negative controls comprised an equivalent volume of DMSO (equivalent of 1% v/v) to normalise the growth data. Data points >100% growth and <0% growth were tabulated as 100% and 0%, respectively. Some compounds were not tested in all parasite lines as there was insufficient material remaining.

[2] = in vitro; conditions: human, pH 7, HepG2 CC50
Text: Initial hits from the parasite panel screen were taken forward in log concentration versus normalised response assays to estimate the half maximal effective concentration (EC50) in hit species as well as the half maximal cytotoxic concentrations (CC50) in the human hepatoma cell line HepG2 as a preliminary test for selectivity. Using CC50/EC50 to define the selectivity index (SI), the selectivity for each compound in a defined species compared to a human cell line was estimated and compared to the EC50 (Figure 3).
as §2
EC50 values were determined by serial two-fold dilution of each compound in 96 well plates. Culture conditions and viability assays were as stated for the initial screen, with some exceptions. L. mexicana and L. donovani axenic amastigotes were seeded at 2 × 10^6 cell/s mL, T. brucei and T. evansi were seeded at 2 × 10^5 cells/mL. For cytotoxicity studies, HepG2 cells were seeded at 1 × 10^5 cells/mL, incubated for 48 h and viability was assessed using the Alamar Blue assay. Differentiated THP-1 cells were seeded at 5 × 10^4 cells/mL, incubated for 48 h, and viability was assessed by the Alamar Blue assay. Normalised growth and viability data (compared to untreated controls) were plotted against Log10 concentration to estimate EC50 in GraphPad (Prism v6). Bioluminescence relative rate of kill assays in asexual intraerythrocytic P. falciparum Dd2^Luc were carried out as described.

[3] = test system: L. mexicana axenic amastigotes; experiment: Initial screen, L. mexicana axenic amastigotes, Alamar Blue; format: cell-based, Leishmania mexicana; conditions: for activity at 2 µM / inhibition of growth at 2 µM: Leishmania mexicana; for initial hit against L. mexicana / inhibition of growth at 2 µM: 2 μM; for initial hit against L. mexicana: growth inhibited by ≥80%; for inhibition of growth at 2 µM: x = initial hit, read-out: initial hit L.m
Method: as §1, with “≥50%. […]” for “≥50%.”
as §3, with “The PhytoQuest Phytopure library is a commercially available collection of purified compounds isolated predominantly from temperate zone plants, with structures confirmed by NMR and mass spectrometry. The library” for “The library”

[4] = test system: T. evansi; experiment: Concentration-response EC50, T. evansi; format: cell-based; conditions: Trypanosoma evansi; bloodstream form, 48 h; read-out: T. evansi EC50
[5] = test system: T. brucei bloodstream form; experiment: Initial screen, T. brucei bloodstream form, Alamar Blue; format: cell-based, Trypanosoma brucei brucei; conditions: for activity at 2 µM / inhibition of growth at 2 µM: Trypanosoma brucei; for activity at 2 µM: initial screen; for initial hit against T. brucei / inhibition of growth at 2 µM: 2 μM; for initial hit against T. brucei: growth reduced by ≥50%; for inhibition of growth at 2 µM: x = initial hit, read-out: initial hit T.b
Method: as §1, §2, §3

[6] = test system: P. falciparum Dd2Luc intraerythrocytic trophozoites; experiment: Initial screen, intraerythrocytic P. falciparum, Malaria SYBR-Green I fluorescence assay; format: cell-based, Plasmodium falciparum; conditions: Plasmodium falciparum, 48 h
Method: as §1, with “≥50%. […]” for “≥50%.”
as §3, with “The PhytoQuest Phytopure library is a commercially available collection of purified compounds isolated predominantly from temperate zone plants, with structures confirmed by NMR and mass spectrometry. The library” for “The library”

[7] = Cytotoxicity CC50, differentiated THP-1, Alamar Blue; format: cell-based, human; conditions: human, THP-1 cells differentiated into macrophages with PMA, differentiated THP-1, 48 h; read-out: THP1 CC50
Text: The four lanosterone-like sterols derived from the Noble Fir Abies procera (700022, 700107, 700136) and the Grand Fir Abies grandis (700240) were the only initial compounds taken forward for L. mexicana due to their nanomolar activity and apparent low cytotoxicity (Figure 3a). […] Understanding the impact of the ring-opened lactone head group in this compound compared to the other three warrants further analysis in exploring their structure-activity relationships. These four sterols were also tested for growth inhibitory activity against L. donovani axenic amastigotes. […] As Leishmania spp. amastigotes typically reside with macrophages, further cytotoxicity assays with these sterols were performed against an activated monocyte cell line (THP-1) (Figure 4b). […]

[8] = test system: T. brucei; experiment: Concentration-response EC50, T. brucei; format: cell-based, Trypanosoma brucei brucei; conditions: Trypanosoma brucei, 48 h, bloodstream form, 48 h; read-out: T. brucei EC50
Method: (§4) EC50 values were determined by serial two-fold dilution of each compound in 96 well plates. Culture conditions and viability assays were as stated for the initial screen, with some exceptions. L. mexicana and L. donovani axenic amastigotes were seeded at 2 × 10^6 cell/s mL, T. brucei and T. evansi were seeded at 2 × 10^5 cells/mL. For cytotoxicity studies, HepG2 cells were seeded at 1 × 10^5 cells/mL, incubated for 48 h and viability was assessed using the Alamar Blue assay [66, 67]. […] Normalised growth and viability data (compared to untreated controls) were plotted against Log10 concentration to estimate EC50 in GraphPad (Prism v6).

[9] = test system: L. mexicana axenic amastigotes; experiment: Concentration-response EC50, L. mexicana axenic amastigotes (WT); format: cell-based, Leishmania mexicana; conditions: Leishmania mexicana, 72 h, read-out: L. mexicana EC50, axenic amastigotes, 72 h
Method: as §4

[10] = mean % growth compared to a normalised control with same concentration of DMSO solvent, read-out: % growth T. evansi
[11] = read-out: % growth L. mexicana, mean % growth compared to a normalised control with same concentration of DMSO solvent, initial screen
[12] = mean % growth compared to a normalised control with same concentration of DMSO solvent, read-out: % growth T. b. brucei
[13] = read-out: %growth P. falciparum, mean % growth compared to a normalised control with same concentration of DMSO solvent, initial screen
[14] = read-out: mean % growth, L. mexicana, initial screen, compared to a normalised control with same concentration of DMSO solvent
[15] = compared to a normalised control with same concentration of DMSO solvent, read-out: mean % growth, T. b. brucei
[16] = read-out: mean % growth, P. falciparum, initial screen, compared to a normalised control with same concentration of DMSO solvent
[17] = compared to a normalised control with same concentration of DMSO solvent, read-out: mean % growth, T. evansi

| SMILES | activity at 1 µM [1, 10] [%] | inhibition of growth at 1 µM [1] [%] | CC50 at 48 h [2] [nM] | activity at 2 µM [3, 11] [%] | EC50 [4] [nM] | activity at 2 µM [5, 12] [%] | activity at 2 µM [6, 13] [%] | initial hit against L. mexicana [3] | activity at 2 µM [3, 14] [%] | inhibition of growth at 2 µM [3] [%] | initial hit against T. brucei [5] | activity at 2 µM [5, 15] [%] | inhibition of growth at 2 µM [5] [%] | CC50 at 48 h [7] [nM] | EC50 [8] [nM] | EC50 [9] [nM] | activity at 2 µM [6, 16] [%] | activity at 1 µM [1, 17] [%] | inhibition of growth at 2 µM ([6]; read-out: initial hit P.f) [%] |
| --- | --- | --- | --- | --- | --- | --- | --- | --- | --- | --- | --- | --- | --- | --- | --- | --- | --- | --- | --- |
| COc1ccc(CC2COC(=O)C2Cc2ccc(OC)c(O)c2O)cc1OC (stereo not drawn) [Compound 700144] | 35.8 | > 50 | > 100000 | 83.6 | 451 | 69.4 | 82.6 | – | – | – | – | – | – | – | – | – | – | – | – |
| CC#CC#CCc1cccc(O)c1 [Compound 701241] | – | – | 670 | – | – | – | – | initial hits | 15 | > 80 | initial hits | -1.9 | > 50 | 270 | 2200 | 330 | 96.5 | – | – |
| CC#CC#CC(=O)c1cccc(OC)c1C(=O)OC [Compound 701044] | – | – | – | – | – | – | – | initial hits | -4.5 | > 80 | – | 79.3 | – | 2200 | – | 330 | 92.6 | 90.3 | – |
| C/C=C(\C)C(=O)OC1C(C)OC(Oc2c(C(C)C)ccc(C)c2O)C(O)C1OC1OC(C)C(OC(=O)C(C)CC)C(O)C1O (stereo not drawn) [Compound 700004] | 0.7 | > 50 | 16000 | 48.1 | 357 | 14 | 101 | – | – | – | initial hits | – | > 50 | – | – | – | – | – | – |
| C/C(=C\C(=O)O)C(O)CC12CCCCC1C(C)(C(=O)OC(O)O)CCC2 (stereo not drawn) [Compound 700513] | – | > 50 | > 100000 | – | 756 | – | – | – | 56.5 | – | – | 104 | – | – | – | – | 97 | 50 | – |
| CC(=O)OC1C(COC(=O)/C=C/c2ccc(O)cc2)OC(Oc2c(-c3ccc(O)cc3)oc3cc(O)cc(O)c3c2=O)C(OC(=O)/C=C/c2ccc(O)cc2)C1O (stereo not drawn) [Compound 701088] | – | > 50 | 54000 | – | 816 | – | – | – | 81.1 | – | – | 63 | – | – | – | – | 99.9 | 42.7 | – |
| C=C(CC)C(=O)OC1CC(=C)C2CC(O)C(=C)C2C2OC(=O)C(=C)C12 (stereo not drawn) [Compound 701212] | – | – | – | – | – | – | – | initial hits | 1.5 | > 80 | – | 77.1 | – | 520 | – | 330 | 84.7 | 86.5 | – |
| C=C1C(=O)OC2/C=C(/C)CC/C=C(/C)CC(OC(=O)/C(C)=C\CO)C12 (stereo not drawn) [Compound 700756] | – | – | – | – | – | – | – | initial hits | 2.9 | > 80 | – | 53.7 | – | 2800 | – | 1000 | 44 | 98.4 | > 50 |
